pEC50: −log10 of the molar value.

For 20 molecules, EC50 results are on record in US20250100998A1, “PARP7 INHIBITORS” (Gilead Sciences, Inc., priority 2023, published 2025).

The test system of the assay is STAT1 (phosphorylated at Tyr701) in NCI-H1373 cells. Kind of assay: Phospho-STAT1 (Tyr701) LANCE Ultra TR-FRET detection assay. The format is cell-based. As to conditions: Homo sapiens, NCI-H1373, 48 h, induction of pSTAT1 in NCI-H1373 cells, 48 hours incubation; normalized to 10 uM positive control and DMSO; 4-parameter fit; read-out: NH1373 pSTAT1 EC50. How it is done:
Phospho-STAT1 (Tyr701 LANCE Ultra TR-FRET Detection Assay
LANCE Ultra phospho-STAT1 (Tyr701) kits are designed for the detection of phosphorylated STAT1 in cell lysates using a simple, homogeneous LANCE Ultra sandwich assay (Cat. #TRF4028M). This assay is intended for assessing compound induction of endogenous levels of cellular STAT1 (phosphorylated at Tyr701) in NCI-H1373 cells. The NCI-H1373 cells are cultured in RPMI 1640 media containing 10% heat inactivated FBS, GlutaMAX, 1% Penicillin-Streptomycin. An Echo acoustic liquid handler is used to transfer 60 nanoliters of compound dilutions using the Echo Qualified, 384-well polypropylene microplate clear flat bottom source plates into a Greiner (#781080) cell culture microplate. NCI-H1373 cells are seeded into these compound-spotted culture plates at 30,000 cells/well in a 60 uL volume in growth media. The plates are incubated in a 5% CO2 humidified incubator at 37° C. for 48 hours. […] Briefly, […] of supplemented lysis buffer is added to each well and allowed to shake for 1 hour at 400 rpm. Next, 5 ul of remixed antibody solutions (vol/vol) prepared in detection buffer are added to each well and allowed to incubate at room temperature overnight. After spinning the plate down at 300 rpm for 1 min, the plate is read on an EnVision plate reader set up for Eu3+ Cryptate and fluorescence emission is measured at two different wavelengths (665 nm and 620 nm). The HTRF ratio is then calculated ([…]) for each well to determine the amount of pSTAT1 in the cell lysate, and the data is then normalized to 10 uM (S)-5-((1-(3-oxo-3-(4-(5-(trifluoromethyl)pyrimidin-2-yl)piperazin-1-yl)propoxy)propan-2-yl)amino)-4-(trifluoromethyl)pyridazin-3(2H)-one positive and DMSO negative controls. The values were then plotted as a function of compound concentration and a 4-parameter fit was applied to derive the EC50 values.

`O=c1[nH]ncc(N[C@H]2CCO[C@@H](Cn3ccc4cc(-c5nc6ccccn6n5)c(F)cc4c3=O)C2)c1C(F)(F)F` [Example 64, 7-fluoro-2-[[(2R,4S)-4-[[6-oxo-5-(trifluoromethyl)-1H-pyridazin-4-yl]amino]tetrahydropyran-2-yl]methyl]-6-([1,2,4]triazolo[1,5-a]pyridin-2-yl)isoquinolin-1-one]: the pEC50 is 7.44.
Next, `CC(O)(c1cnc(-c2cc3ccn(C[C@@H]4CCC[C@H](Nc5cn[nH]c(=O)c5C(F)(F)F)C4)c(=O)c3cc2F)nc1)C(F)F` (stereo partly drawn) [Example 27, 6-(5-(1,1-difluoro-2-hydroxypropan-2-yl)pyrimidin-2-yl)-7-fluoro-2-(((1R,3S)-3-((6-oxo-5-(trifluoromethyl)-1,6-dihydropyridazin-4-yl)amino)cyclohexyl)methyl)isoquinolin-1(2H)-one]: 7.78; `O=c1[nH]ncc(N[C@H]2CCC[C@@H](Cn3cc(Cl)c4cc(-c5ncc(C(F)F)cn5)c(F)cc4c3=O)C2)c1C(F)(F)F` [Example 60, 4-chloro-6-(5-(difluoromethyl)pyrimidin-2-yl)-7-fluoro-2-(((1R,3S)-3-((6-oxo-5-(trifluoromethyl)-1,6-dihydropyridazin-4-yl)amino)cyclohexyl)methyl)isoquinolin-1(2H)-one]: 8.21; `O=c1[nH]ncc(N[C@H]2CCC[C@@H](Cn3ccc4cc(-c5ncc(OC(F)F)cn5)c(F)c(F)c4c3=O)C2)c1C(F)(F)F` [Example 21, 6-(5-(difluoromethoxy)pyrimidin-2-yl)-7,8-difluoro-2-(((1R,3S)-3-((6-oxo-5-(trifluoromethyl)-1,6-dihydropyridazin-4-yl)amino)cyclohexyl)methyl)isoquinolin-1(2H)-one]: 8.82.
Consider `O=c1[nH]ncc(O[C@H]2CCC[C@@H](Cn3cc(F)c4cc(-c5ncc(OC(F)F)cn5)c(F)c(F)c4c3=O)C2)c1C(F)(F)F` [Example 50, 6-(5-(difluoromethoxy)pyrimidin-2-yl)-4,7,8-trifluoro-2-(((1R,3S)-3-((6-oxo-5-(trifluoromethyl)-1,6-dihydropyridazin-4-yl)oxy)cyclohexyl)methyl)isoquinolin-1(2H)-one], for which the pEC50 was 8.89.
Next, `CC(C)(O)c1cnc(-c2cc3ccn(C[C@@H]4CCC[C@H](Nc5cn[nH]c(=O)c5C(F)(F)F)C4)c(=O)c3c(F)c2F)nc1` [Example 18, 7,8-difluoro-6-(5-(2-hydroxypropan-2-yl)pyrimidin-2-yl)-2-(((1R,3S)-3-((6-oxo-5-(trifluoromethyl)-1,6-dihydropyridazin-4-yl)amino)cyclohexyl)methyl)isoquinolin-1(2H)-one]: 8.49.
Consider `O=c1[nH]ncc(O[C@H]2CCC[C@@H](Cn3ccc4cc(-c5ncc(C(F)F)cn5)c(F)c(F)c4c3=O)C2)c1C(F)(F)F` [Example 54, 6-(5-(difluoromethyl)pyrimidin-2-yl)-7,8-difluoro-2-(((1R,3S)-3-((6-oxo-5-(trifluoromethyl)-1,6-dihydropyridazin-4-yl)oxy)cyclohexyl)methyl)isoquinolin-1(2H)-one], for which the pEC50 is 8.62.
As for `CC(F)(F)c1cnc(-c2cc3ccn(C[C@@H]4CCC[C@H](Nc5cn[nH]c(=O)c5C(F)(F)F)C4)c(=O)c3c(F)c2F)nc1` [Example 20, 6-(5-(1,1-difluoroethyl)pyrimidin-2-yl)-7,8-difluoro-2-(((1R,3S)-3-((6-oxo-5-(trifluoromethyl)-1,6-dihydropyridazin-4-yl)amino)cyclohexyl)methyl)isoquinolin-1(2H)-one], the pEC50 is 8.79.
For `CC(O)(c1cnc(-c2cc3ccn(C[C@@H]4CCC[C@H](Nc5cn[nH]c(=O)c5C(F)(F)F)C4)c(=O)c3c(F)c2F)nc1)C(F)F` (stereo partly drawn) [Example 28, 6-(5-(1,1-difluoro-2-hydroxypropan-2-yl)pyrimidin-2-yl)-7,8-difluoro-2-(((1R,3S)-3-((6-oxo-5-(trifluoromethyl)-1,6-dihydropyridazin-4-yl)amino)cyclohexyl)methyl)isoquinolin-1(2H)-one] the value was 8.23; for `O=c1[nH]ncc(N[C@H]2CCO[C@@H](Cn3ccc4cc(-c5nc6ccccn6n5)c(F)c(F)c4c3=O)C2)c1C(F)(F)F` [Example 65, 7,8-difluoro-2-[[(2R,4S)-4-[[6-oxo-5-(trifluoromethyl)-1H-pyridazin-4-yl]amino]tetrahydropyran-2-yl]methyl]-6-([1,2,4]triazolo[1,5-a]pyridin-2-yl)isoquinolin-1-one1-one], 7.69.
Next, `CS(=O)(=O)c1cnc(-c2cc3ccn(C[C@@H]4CCC[C@H](Nc5cn[nH]c(=O)c5C(F)(F)F)C4)c(=O)c3cc2F)nc1` [Example 13, 7-fluoro-6-(5-(methylsulfonyl)pyrimidin-2-yl)-2-(((1R,3S)-3-((6-oxo-5-(trifluoromethyl)-1,6-dihydropyridazin-4-yl)amino)cyclohexyl)methyl)isoquinolin-1(2H)-one]: 8.21; `O=c1[nH]ncc(N[C@H]2CCC[C@@H](Cn3cc(F)c4cc(-c5ncc(C(F)F)cn5)c(F)c(F)c4c3=O)C2)c1C(F)(F)F` [Example 34, 6-(5-(difluoromethyl)pyrimidin-2-yl)-4,7,8-trifluoro-2-(((1R,3S)-3-((6-oxo-5-(trifluoromethyl)-1,6-dihydropyridazin-4-yl)amino)cyclohexyl)methyl)isoquinolin-1(2H)-one]: 9.02.
For `O=c1[nH]ncc(N[C@H]2CCC[C@@](O)(Cn3ccc4cc(-c5ncc(C(F)(F)F)cn5)c(F)cc4c3=O)C2)c1C(F)(F)F` [Example 63, 7-fluoro-2-[[(1S,3S)-1-hydroxy-3-[[6-oxo-5-(trifluoromethyl)-1H-pyridazin-4-yl]amino]cyclohexyl]methyl]-6-[5-(trifluoromethyl)pyrimidin-2-yl]isoquinolin-1-one] the value was 8.73; for `[2H]C([2H])([2H])Oc1cnc(-c2cc3c(cc2F)C(=O)N(C[C@@H]2CCC[C@H](Nc4cn[nH]c(=O)c4C(F)(F)F)C2)CC3)nc1` [Example 71, 7-fluoro-2-[[(1R,3S)-3-[[6-oxo-5-(trifluoromethyl)-1H-pyridazin-4-yl]amino]cyclohexyl]methyl]-6-[5-(trideuteriomethoxy)pyrimidin-2-yl]-3,4-dihydroisoquinolin-1-one], 8.12; for `O=c1[nH]ncc(N[C@H]2CCC[C@@H](Cn3cc(F)c4cc(-c5ncc(OC(F)(F)F)cn5)c(F)cc4c3=O)C2)c1C(F)(F)F` [Example 23, 4,7-difluoro-2-(((1R,3S)-3-((6-oxo-5-(trifluoromethyl)-1,6-dihydropyridazin-4-yl)amino)cyclohexyl)methyl)-6-(5-(trifluoromethoxy)pyrimidin-2-yl)isoquinolin-1(2H)-one], 8.04.
Consider `O=C1c2cc(F)c(-c3ncc(C(F)(F)F)cn3)cc2CN1C[C@@H]1CCC[C@H](Nc2cn[nH]c(=O)c2C(F)(F)F)C1` [Example 74, 6-fluoro-2-(((1R,3S)-3-((6-oxo-5-(trifluoromethyl)-1,6-dihydropyridazin-4-yl)amino)cyclohexyl)methyl)-5-(5-(trifluoromethyl)pyrimidin-2-yl)isoindolin-1-one], for which the pEC50 is 8.04.
Next, `CC(C)(O)c1cnc(-c2cc3c(cc2F)C(=O)N(C[C@@H]2CCC[C@H](Nc4cn[nH]c(=O)c4C(F)(F)F)C2)CC3)nc1` [Example 73, 7-fluoro-6-(5-(2-hydroxypropan-2-yl)pyrimidin-2-yl)-2-(((1R,3S)-3-((6-oxo-5-(trifluoromethyl)-1,6-dihydropyridazin-4-yl)amino)cyclohexyl)methyl)-3,4-dihydroisoquinolin-1(2H)-one]: 8.11.
On to `O=c1[nH]ncc(N[C@H]2CCC[C@@H](Cn3cc(F)c4cc(-c5ncc(C(F)(F)F)cn5)c(F)c(F)c4c3=O)C2)c1C(F)(F)F` [Example 33, 4,7,8-trifluoro-2-(((1R,3S)-3-((6-oxo-5-(trifluoromethyl)-1,6-dihydropyridazin-4-yl)amino)cyclohexyl)methyl)-6-(5-(trifluoromethyl)pyrimidin-2-yl)isoquinolin-1(2H)-one], for which the pEC50 was 8.82.
For `O=c1[nH]ncc(N[C@H]2CCC[C@@H](Cn3ccc4cc(-c5nc6n(n5)COCCO6)c(F)cc4c3=O)C2)c1C(F)(F)F` [Example 8, 6-(7,8-dihydro-5H-[1,2,4]triazolo[5,1-b][1,5,3]dioxazepin-2-yl)-7-fluoro-2-(((1R,3S)-3-((6-oxo-5-(trifluoromethyl)-1,6-dihydropyridazin-4-yl)amino)cyclohexyl)methyl)isoquinolin-1(2H)-one] the value was 8.23; for `O=c1[nH]ncc(N[C@H]2CCC[C@@H](Cn3ccc4cc(-c5ncc(F)cn5)c(F)cc4c3=O)C2)c1C(F)(F)F` [Example 12, 7-fluoro-6-(5-fluoropyrimidin-2-yl)-2-(((1R,3S)-3-((6-oxo-5-(trifluoromethyl)-1,6-dihydropyridazin-4-yl)amino)cyclohexyl)methyl)isoquinolin-1(2H)-one], 7.64.
